Results taken from US12011433B2 (UNIVERSITÁ DEGLI STUDI DI BARI “ALDO MORO”, priority 2016, dated 2024).

Columns and labels:
ovine COX-1 = ovine COX-1 (Ovis aries (Sheep), UniProt P05979); assay: colorimetric COX (ovine) inhibitor screening assay kit; assay type: biochemical; settings: for IC50: ovine COX-1; for inhibition at 50 µM: read-out: COX-1 [% inhibition at 50 μM], ovine COX-1, 50 μM
Method: (§1) Enzyme inhibition was determined using a colorimetric COX (ovine) inhibitor screening assay kit (Cayman Chemicals, Ann Arbor, MI, USA) following the manufacturer's instructions. Stock solutions of test compounds were dissolved in a minimum volume of DMSO.

ovine COX-2 = ovine COX-2 (Ovis aries (Sheep), UniProt P79208); assay: as above; assay type: biochemical; settings: for IC50: ovine COX-2; for inhibition at 50 µM: read-out: COX-2 [% inhibition at 50 μM], ovine COX-2, 50 μM
Method: as §1

Caco-2 cells = assay: Caco-2 monolayer efflux assay, Apparent Permeability (Papp), with or without GLUT-1 inhibitor phloretin; assay type: in vitro ADME, Human; settings: phloretin vs alone
Method: In a monolayer efflux assay, the Apparent Permeability (Papp) in both basolateral to apical [Papp(B→A)] and apical to basolateral [Papp(A→B)] directions was determined for each compound (FIG. 2). Human colonic adenocarcinoma cell line (Caco-2) presents a facilitated transport system at the apical and basolateral surface. Caco-2 cells express high levels of GLUT-1 that are localized to the basolateral membrane and transport glucose to the serosal side.
The Papp(B→A) flux of each compound alone or in the presence of phloretin, a GLUT-1 inhibitor, has been determined. Since GLUT-1 is express in the basolateral compartment a high B→A flux means that the transport is GLUT-1 mediated because B→A flux represents the active transport.
A→B flux, which represents the passive transport, has also been determined for each compound (Table 2).

ovine COX-1, sequence (P05979 25-600): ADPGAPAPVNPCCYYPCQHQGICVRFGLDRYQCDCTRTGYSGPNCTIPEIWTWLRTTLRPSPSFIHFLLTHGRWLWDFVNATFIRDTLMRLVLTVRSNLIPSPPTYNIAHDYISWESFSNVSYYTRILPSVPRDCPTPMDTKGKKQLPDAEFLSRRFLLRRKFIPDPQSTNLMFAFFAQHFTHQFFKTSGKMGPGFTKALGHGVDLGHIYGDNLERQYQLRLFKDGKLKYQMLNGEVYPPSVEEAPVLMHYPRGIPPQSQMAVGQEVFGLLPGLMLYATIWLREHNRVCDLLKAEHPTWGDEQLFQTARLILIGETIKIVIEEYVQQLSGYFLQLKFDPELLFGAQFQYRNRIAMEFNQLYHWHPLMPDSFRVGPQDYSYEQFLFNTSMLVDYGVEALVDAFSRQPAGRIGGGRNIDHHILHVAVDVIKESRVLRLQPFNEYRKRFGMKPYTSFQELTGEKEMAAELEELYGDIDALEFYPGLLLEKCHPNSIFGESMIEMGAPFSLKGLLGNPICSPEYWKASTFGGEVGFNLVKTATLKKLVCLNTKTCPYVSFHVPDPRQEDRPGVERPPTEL
ovine COX-2, sequence (P79208 17-603): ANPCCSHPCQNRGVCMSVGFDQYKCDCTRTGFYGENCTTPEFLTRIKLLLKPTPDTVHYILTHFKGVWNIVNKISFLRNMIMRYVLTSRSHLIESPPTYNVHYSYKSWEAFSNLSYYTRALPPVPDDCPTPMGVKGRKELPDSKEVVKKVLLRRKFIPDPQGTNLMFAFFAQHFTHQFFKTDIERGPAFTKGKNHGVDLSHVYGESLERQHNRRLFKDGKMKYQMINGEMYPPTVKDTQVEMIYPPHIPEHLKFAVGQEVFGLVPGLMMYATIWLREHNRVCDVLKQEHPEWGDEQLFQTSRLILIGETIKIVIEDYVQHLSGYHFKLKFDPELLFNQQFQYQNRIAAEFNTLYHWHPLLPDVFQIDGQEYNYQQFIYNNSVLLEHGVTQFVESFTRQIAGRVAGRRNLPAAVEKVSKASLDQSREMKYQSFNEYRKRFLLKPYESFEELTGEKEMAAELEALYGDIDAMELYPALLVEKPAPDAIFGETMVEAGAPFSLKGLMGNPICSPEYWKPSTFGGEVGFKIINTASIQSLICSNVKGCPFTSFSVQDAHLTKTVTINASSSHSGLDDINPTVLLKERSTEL

Row | Structure (SMILES) | IC50 (ovine COX-1) [nM] | inhibition at 50 µM (ovine COX-1) [%] | IC50 (ovine COX-2) [nM] | inhibition at 50 µM (ovine COX-2) [%] | reduction of the basolateral to apical flux (Papp B→A) in the presence of phloretin (Caco-2 cells) [%]
1 | COc1ccc(-c2noc(CC(=O)NCCCCNC(=O)Cc3onc(-c4ccc(OC)cc4)c3-c3ccc(OC)cc3)c2-c2ccc(OC)cc2)cc1 [drawing 64] | 5500 | 74 | > 50000 | – | –
2 | COc1ccc(-c2noc(CC(=O)NCc3ccc(CNC(=O)Cc4onc(-c5ccc(OC)cc5)c4-c4ccc(OC)cc4)cc3)c2-c2ccc(OC)cc2)cc1 | > 50000 | – | > 50000 | – | –
3 | CCCCC/C=C\C/C=C\C/C=C\C/C=C\CCCC(=O)NCCCCNC(=O)Cc1onc(-c2ccc(OC)cc2)c1-c1ccc(OC)cc1 | 16000 | 57 | 800 | 61 | –
4 | COc1ccc(-c2noc(CC(=O)Nc3ccc(NC(=O)Cc4onc(-c5ccc(OC)cc5)c4-c4ccc(OC)cc4)cc3)c2-c2ccc(OC)cc2)cc1 [drawing 65] | 150 | 85 | > 50000 | – | –
5 | COC(=O)CNC(=O)Cc1onc(-c2ccc(OC)cc2)c1-c1ccc(OC)cc1 | 70 | 95 | 4400 | 80 | –
6 | COc1ccc(-c2noc(CC(=O)O)c2-c2ccc(OC)cc2)cc1 [drawing 42, reference compound] | – | 100 | > 50000 | 38 | –
7 | COc1ccc(-c2noc(CC(=O)NCC(=O)O)c2-c2ccc(OC)cc2)cc1 | – | 23 | – | 17 | –
8 | COc1ccc(-c2noc(CC(=O)NCCCCC(=O)OC[C@H]3OC(O)[C@H](O)[C@@H](O)[C@H]3O)c2-c2ccc(OC)cc2)cc1 (stereo partly drawn) [GALMOF5, 6-O-(5-{2-[3,4-bis(4-methoxyphenyl)isoxazol-5-yl]acetamido}pentanoyl)-D-galactopyranose] | – | – | – | – | 37
9 | COc1ccc(-c2noc(CC(=O)NCCNC(=O)Cc3onc(-c4ccc(OC)cc4)c3-c3ccc(OC)cc3)c2-c2ccc(OC)cc2)cc1 [drawing 61] | 13 | 75 | 120 | 45 | –
10 | CCCCC/C=C\C/C=C\C/C=C\C/C=C\CCCC(=O)Nc1ccc(NC(=O)Cc2onc(-c3ccc(OC)cc3)c2-c2ccc(OC)cc2)cc1 | 49 | 66 | > 50000 | 40 | –
11 | COc1ccc(-c2noc(CC(=O)OCC3OC(O)C(O)C(O)C3O)c2-c2ccc(OC)cc2)cc1 (centres unmarked) [drawing 44] | 100 | 100 | 700 | 87 | –
12 | COc1ccc(-c2noc(CC(=O)Nc3ccc(-c4ccc(NC(=O)Cc5onc(-c6ccc(OC)cc6)c5-c5ccc(OC)cc5)cc4)cc3)c2-c2ccc(OC)cc2)cc1 [drawing 66] | 80 | 73 | > 50000 | – | –
13 | COc1ccc(-c2noc(CC(=O)NCCCCCCNC(=O)Cc3onc(-c4ccc(OC)cc4)c3-c3ccc(OC)cc3)c2-c2ccc(OC)cc2)cc1 | 9000 | 50 | > 50000 | 22 | –
